Usually CC50 stands for the concentration at which the toxic effect on the cells reaches its halfway point. By HC50 is commonly meant the concentration that lyses half of the red blood cells.

Data set [1] relates to M. abscessus CIP 104536 T S variant. Briefly: microbe, parasite or virus in culture. The data set is classed as cell-based, Mycobacterium abscessus. Here is the method: (§1) Mycobacterium abscessus S and R strains (CIP 104536^ T) were grown in Middlebrook 7H9 medium supplemented with 0.05% (v/v) Tween 80, 0.2% (v/v) glycerol and 10% (v/v) oleic acid–albumin–dextrose–catalase (OADC enrichment; BD Difco) (7H9-S^OADC) at 37 °C under stirring (200 rpm). We used Ar-1 (RWC^3VYAYVRVRGVLVRYRRC^20W) and Ar-1-Abu, in which the cysteines in position 3 and 20 were replaced by alpha-amino-n-butyric acid (Abu) residues. We also tested Ar-2 (RWC^3VYAYVRIRGVLVRYRRC^20W), Ar-2-Abu (cysteines 3 and 20 replaced), Ar-3 (GFC^3WYVC^7VYRNGVRVC^16YRRC^20N), Ar-3-Abu (all four cysteines were replaced by Abu), Ar-3(3–20) (cysteines 7 and 16 replaced), and Ar-3(7–16) (cysteines 3 and 20 replaced). All arenicins and arenicin-Abu derivatives were obtained from GenScript (Piscataway, NJ, USA) with purity higher than 95%.
(§2) For determining the antimicrobial activity of the different peptides, the Middlebrook 7H9 broth microdilution method was used in sterile 96-well flat-bottom Greiner Bio-One polypropylene microplates with lid (Thermo Fisher Scientific) using the resazurin microtiter assay (REMA). Briefly, Mycobacterium abscessus was cultured up to mid log-phase (OD600 ~ 1.5–2) and diluted to a cell density of 5 × 10^6 cells/mL in 7H9-S^OADC. Then, 100 µL of this above inoculum was distributed to each well containing serial two-fold dilutions of arenicin, arenicin derivative or controls to a final volume of 200 µL. Growth controls containing no peptide (i.e., bacteria only = B), inhibition controls containing 50 µg/mL kanamycin (Euromedex, Souffelweyersheim, France) and sterility controls (i.e., medium only) without bacteria were included. After 5 days incubation at 37° C in a humidity chamber to prevent evaporation, 20 µL of a 0.025% (w/v) resazurin solution was added to each well. The microplate was re-incubated until appearance of a color change from blue to pink in the control well (i.e., bacteria without antibiotics). Fluorescence of the metabolite resorufin (λex/λem = 530/590 nm) was measured using a Tecan Spark 10 M ™ multimode microplate reader (Tecan Group Ltd, France). Relative fluorescence units (RFU) were defined as: RFU% = (test well FU/mean FU of control B wells) × 100. MIC50 and MIC90 values were determined by fitting the RFU% sigmoidal dose–response curves in Kaleidagraph 4.2 software (Synergy Software, Reading, PA). The concentration of peptide leading to 50% and 90% inhibition of M. abscessus growth was defined as the MIC50 and MIC90, respectively. All experiments were performed independently at least three times.

The subject of data set [2] is M. abscessus CIP 104536 T R variant. Briefly: microbe, parasite or virus in culture. As to conditions: Mycobacteroides abscessus, CIP104536, 120 h. The data set is classed as cell-based, Mycobacterium abscessus. How it is done:
as §1, §2

Data set [3] is classed as cell-based, human. How it is done: (§3) The toxicity of each peptide was evaluated on human cell lines using a resazurin assay as previously described. Human lung epithelial cells BEAS-2B (ATCC CRL-9609), liver cells HepG2 (ATCC HB-8065), and kidney cells A498 (ATCC HTB-44) were used. All cells were cultured in Dulbecco's modified essential medium (DMEM) supplemented with 10% heat-inactivated fetal calf serum (FBS, Thermo Fisher Scientific), and 1% L-glutamine (Thermo Fisher Scientific) (DMEM^FBS) at 37 °C in a 5% CO2 incubator to subconfluent concentrations. Cells were detached with trypsin–EDTA solution (Thermo Fisher Scientific), and around 1 × 10^4 cells/well were seeded in 96-well flat-bottom microplates (Greiner Bio-One) with a lid, and cultured for additional 48–72 h at 37 °C and 5% CO2 until cell confluence. The medium was removed, and 100 µL of serial two-fold dilutions of the peptides in DMEM^FBS were added to each well. Following a 48 h-incubation period at 37 °C and 5% CO2, cell viability was evaluated using the resazurin assay as described above. Fluorescence of the resazurin metabolite resorufin (λex/λem = 530/590 nm) was measured after 2 h incubation at 37 °C and 5% CO2 in the dark, with a microplate reader (Biotek, Synergy Mx, Colmar, France). The cytotoxic concentration of peptide leading to 50% cell death as compared to the control was defined as the CC50, and was determined by fitting the RFU% sigmoidal dose–response curves in Kaleidagraph 4.2 software (Synergy Software). All experiments were conducted in triplicate.

The nature of data set [4]: Cytotoxic assay on human cells (resazurin). In kind it is cell-based. Particulars: A498, 48 h exposure. How it is done:
as §3
Background: Alamar Blue is a resazurin reagent that responds to reducing activity.

Another data set has as its system human erythrocytes. The data set is classed as cell-based. How it is done: The hemolytic activity of each peptide was determined as previously described. Briefly, human erythrocytes (red blood cells, hRBC; Divbioscience, Ulvenhout, Netherlands) were washed 2-times with sterile phosphate buffered saline (PBS; Thermo Fisher Scientific) and pelleted by centrifugation at 800 rpm for 5 min; then resuspended in DMEM^FBS to a final erythrocyte concentration of 8% (v/v). Then, 100 µL of this hRBC solution was distributed to each well of sterile 96-well flat-bottom microplates (Greiner Bio-One) containing serial two-fold dilutions of arenicin, arenicin-Abu derivative or controls in DMEM^FBS to a final volume of 200 µL. After 1 h incubation at 37 °C, microplates were centrifuged at 800 rpm for 5 min. Then, 100 µL of supernatant were carefully transferred to a new 96-well microplate, and OD405 corresponding to the release of hemoglobin was measured using a microplate reader (Biotek, Synergy Mx, Colmar, France). DMEM^FBS and Triton-X100 at 0.1% (v/v) were used as negative (i.e., 0% hemolysis) and positive (i.e., 100% hemolysis) controls, respectively. The concentration of peptide leading to 10% and 50% of hemolysis compared to the positive control was defined as the HC10 and HC50, respectively, and was determined by fitting the dose–response curves in Kaleidagraph 4.2 software (Synergy Software). All experiments were done in triplicate.

Data set [5] is classed as cell-based, human. Here is the method: as §3
The source holds these as a separate data set.

The mark [6] stands for this setting: Mycobacteroides abscessus, CIP104536, 120 h.
The mark [7] stands for this setting: S variant, 50% inhibition of in vitro growth, REMA, 5 days.
The mark [8] stands for this setting: S variant, 90% inhibition of in vitro growth, REMA, 5 days.

Read-outs that look alike come from different tables or passages of the source. Positions of bridges follow the written chain, without caps; N, C: chain ends. Non-standard residues stand in square brackets, D forms with d. Residues, ends and D or L forms follow the SMILES beside them. Abu = CC[C@H](N)C(=O)O

On to `NCC[C@H](O)C(=O)N[C@@H]1C[C@H](N)[C@@H](O[C@H]2O[C@H](CN)[C@@H](O)[C@H](O)[C@H]2O)[C@H](O)[C@H]1O[C@H]1O[C@H](CO)[C@@H](O)[C@H](N)[C@H]1O` [AMK, amikacin, reference compound], for which the MIC50 in data set [1] (setting [6]) is 3.9 ± 0.19 µM; in data set [2], 7.4 ± 0.26 µM. The MIC90 in data set [1] (setting [6]) is 5.8 µM; in data set [2] it was 10.1 µM.

For the compound `CC[C@H](NC(=O)[C@H](CCCNC(=N)N)NC(=O)[C@H](CCCNC(=N)N)NC(=O)[C@H](Cc1ccc(O)cc1)NC(=O)[C@H](CCCNC(=N)N)NC(=O)[C@@H](NC(=O)[C@H](CC(C)C)NC(=O)[C@@H](NC(=O)CNC(=O)[C@H](CCCNC(=N)N)NC(=O)[C@@H](NC(=O)[C@H](CCCNC(=N)N)NC(=O)[C@@H](NC(=O)[C@H](Cc1ccc(O)cc1)NC(=O)[C@H](C)NC(=O)[C@H](Cc1ccc(O)cc1)NC(=O)[C@@H](NC(=O)[C@H](CC)NC(=O)[C@H](Cc1c[nH]c2ccccc12)NC(=O)[C@@H](N)CCCNC(=N)N)C(C)C)C(C)C)[C@@H](C)CC)C(C)C)C(C)C)C(=O)N[C@@H](Cc1c[nH]c2ccccc12)C(=O)O` [Ar-2-Abu] (H-RW[Abu]VYAYVRIRGVLVRYRR[Abu]W-OH), the values for the CC50 in data set [3], in data set [4] and in data set [5] were above 100 µM, 92.1 ± 2.3 µM and above 100 µM, respectively. The HC10 in the data set on human erythrocytes (red cells of human, 1 h) is on record as 15.4 ± 1.0 µM. Further, in the data set with human erythrocytes (red cells of human, 1 h), the HC50 is given as above 100 µM.

For `CC[C@H](C)[C@@H]1NC(=O)[C@H](CCCNC(=N)N)NC(=O)[C@H](C(C)C)NC(=O)[C@H](Cc2ccc(O)cc2)NC(=O)[C@H](C)NC(=O)[C@H](Cc2ccc(O)cc2)NC(=O)[C@H](C(C)C)NC(=O)[C@@H](NC(=O)[C@H](Cc2c[nH]c3ccccc23)NC(=O)[C@@H](N)CCCNC(=N)N)CSSC[C@@H](C(=O)N[C@@H](Cc2c[nH]c3ccccc23)C(=O)O)NC(=O)[C@H](CCCNC(=N)N)NC(=O)[C@H](CCCNC(=N)N)NC(=O)[C@H](Cc2ccc(O)cc2)NC(=O)[C@H](CCCNC(=N)N)NC(=O)[C@H](C(C)C)NC(=O)[C@H](CC(C)C)NC(=O)[C@H](C(C)C)NC(=O)CNC(=O)[C@H](CCCNC(=N)N)NC1=O` [Ar-2] (H-RWCVYAYVRIRGVLVRYRRCW-OH; disulfide 3-20), the results for the CC50 in data set [3], in data set [4] and in data set [5] were above 100 µM, 37.7 ± 1.1 µM and above 100 µM, respectively. Moreover, the HC50 in the data set with human erythrocytes stood at 29.2 µM. Further, in the data set with human erythrocytes (red cells of human, 1 h), the HC10 is 4.9 ± 0.7 µM.

Regarding `CC[C@@H]1NC(=O)[C@H](C(C)C)NC(=O)[C@H](CCCNC(=N)N)NC(=O)[C@H](C(C)C)NC(=O)CNC(=O)[C@H](CC(N)=O)NC(=O)[C@H](CCCNC(=N)N)NC(=O)[C@H](Cc2ccc(O)cc2)NC(=O)[C@H](C(C)C)NC(=O)[C@H](CC)NC(=O)[C@H](C(C)C)NC(=O)[C@H](Cc2ccc(O)cc2)NC(=O)[C@H](Cc2c[nH]c3ccccc23)NC(=O)[C@@H](NC(=O)[C@H](Cc2ccccc2)NC(=O)CN)CSSC[C@@H](C(=O)N[C@@H](CC(N)=O)C(=O)O)NC(=O)[C@H](CCCNC(=N)N)NC(=O)[C@H](CCCNC(=N)N)NC(=O)[C@H](Cc2ccc(O)cc2)NC1=O` [Ar-3(3–20)] (H-GFCWYV[Abu]VYRNGVRV[Abu]YRRCN-OH; disulfide 3-20), the CC50 in data set [3] is above 100 µM; in data set [4], 42 ± 1.3 µM; in data set [5] it was above 100 µM. The “hemolytic activity on human erythrocytes (in words, considering HC10)” value with human erythrocytes is “totally inactive”. In addition, the HC10 in the data set with human erythrocytes (red cells of human, 1 h) was above 100 µM. Further, in the data set on human erythrocytes (red cells of human, 1 h), the HC50 is recorded as above 100 µM. The MIC50 in data set [1] (setting [7]) worked out at 48.3 µM. In addition, the MIC90 in data set [1] (setting [8]) is recorded as above 100 µM.

In the case of `CC[C@H](NC(=O)[C@H](CCCNC(=N)N)NC(=O)[C@H](CCCNC(=N)N)NC(=O)[C@H](Cc1ccc(O)cc1)NC(=O)[C@@H]1CSSC[C@H](NC(=O)[C@@H](NC(=O)[C@H](Cc2ccc(O)cc2)NC(=O)[C@H](Cc2c[nH]c3ccccc23)NC(=O)[C@H](CC)NC(=O)[C@H](Cc2ccccc2)NC(=O)CN)C(C)C)C(=O)N[C@@H](C(C)C)C(=O)N[C@@H](Cc2ccc(O)cc2)C(=O)N[C@@H](CCCNC(=N)N)C(=O)N[C@@H](CC(N)=O)C(=O)NCC(=O)N[C@@H](C(C)C)C(=O)N[C@@H](CCCNC(=N)N)C(=O)N[C@@H](C(C)C)C(=O)N1)C(=O)N[C@@H](CC(N)=O)C(=O)O` [Ar-3(7–16)] (H-GF[Abu]WYVCVYRNGVRVCYRR[Abu]N-OH; disulfide 7-16), the CC50 was above 100 µM in data set [3], 37.7 ± 1.2 µM in data set [4] and above 100 µM in data set [5]. In addition, the HC10 with human erythrocytes (red cells of human, 1 h) was found to be 41.1 ± 4.3 µM. Moreover, the HC50 with human erythrocytes (red cells of human, 1 h) was above 100 µM.

Regarding `CC(C)[C@@H]1NC(=O)CNC(=O)[C@H](CC(N)=O)NC(=O)[C@H](CCCNC(=N)N)NC(=O)[C@H](Cc2ccc(O)cc2)NC(=O)[C@H](C(C)C)NC(=O)[C@@H]2CSSC[C@H](NC(=O)[C@H](C(C)C)NC(=O)[C@H](CCCNC(=N)N)NC1=O)C(=O)N[C@@H](Cc1ccc(O)cc1)C(=O)N[C@@H](CCCNC(=N)N)C(=O)N[C@@H](CCCNC(=N)N)C(=O)N[C@H](C(=O)N[C@@H](CC(N)=O)C(=O)O)CSSC[C@H](NC(=O)[C@H](Cc1ccccc1)NC(=O)CN)C(=O)N[C@@H](Cc1c[nH]c3ccccc13)C(=O)N[C@@H](Cc1ccc(O)cc1)C(=O)N[C@@H](C(C)C)C(=O)N2` [Ar-3] (H-GFCWYVCVYRNGVRVCYRRCN-OH; disulfide 3-20, 7-16), the CC50 in data set [3] is above 100 µM; in data set [4], 46.7 ± 1.7 µM; in data set [5], above 100 µM. Further, in the data set with human erythrocytes (red cells of human, 1 h), the HC10 amounted to 30.3 ± 2.5 µM. Moreover, the HC50 in the data set with human erythrocytes (red cells of human, 1 h) is above 100 µM. Moreover, the MIC50 in data set [1] (setting [7]) was determined as 5.3 µM. Besides, the MIC90 in data set [1] (setting [8]) is on record as 12.2 µM.

The record behind these values is paper PMC10823733, “Promising antibacterial efficacy of arenicin peptides against the emerging opportunistic pathogen Mycobacterium abscessus” (Journal of Biomedical Science, 2024).
